The format of series [1] is physicochemical. Particulars: 25-50 μM peptide in 50 mM potassium phosphate (pH 7.5) or water.
In another series the target is Proteinase K (Parengyodontium album, UniProt P06873). As to the kind of experiment: in vitro. Conditions: pH 7.4.

In general, half-life refers to the time in which the quantity being followed falls by half. The IC50 is the point on the concentration scale where inhibition reaches its midpoint. Low values mean greater potency in that assay, high ones weaker potency in that assay.

Bridge positions count the residues as written; N and C are the ends. Square brackets hold non-standard residues; d marks the D form. Peptide text beside a SMILES is read from it. S5 = C=CCCC[C@](C)(N)C(=O)O; Nle = CCCC[C@H](N)C(=O)O A value given as a limit tells only on which side of the number the result lay.

Proteinase K, sequence (P06873 106-384): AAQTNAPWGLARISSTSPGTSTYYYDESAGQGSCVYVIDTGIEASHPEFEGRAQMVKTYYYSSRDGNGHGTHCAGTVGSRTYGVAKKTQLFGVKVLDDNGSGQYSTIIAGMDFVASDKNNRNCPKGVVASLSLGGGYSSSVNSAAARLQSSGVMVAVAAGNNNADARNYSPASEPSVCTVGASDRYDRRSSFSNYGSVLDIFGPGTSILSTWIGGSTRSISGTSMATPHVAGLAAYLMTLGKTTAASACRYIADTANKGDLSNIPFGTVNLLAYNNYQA

As for “SLDQINVTFLDLEYEMKKLEEAIKKLEESYIDLKEL [SEQ ID NO:110, reference compound]”, the “alpha-helical structure in solution by circular dichroism” value in series [1] is “little to no alpha-helical structure”.
Consider `CC[C@H](C)[C@H](NC(C)=O)C(=O)N[C@@H](CCC(N)=O)C(=O)N[C@@]1(C)CCCC=CCCC[C@@](C)(C(=O)N[C@@H](CC(C)C)C(=O)N[C@@H](CC(N)=O)C(=O)N[C@@H](CCC(=O)O)C(=O)N[C@H](C(=O)N[C@@H](C)C(=O)N[C@@H](CCCCN)C(=O)N[C@@]2(C)CCCC=CCCC[C@@](C)(C(=O)N[C@@H](CC(C)C)C(N)=O)NC(=O)[C@H](CCC(=O)O)NC(=O)[C@H](CC(N)=O)NC(=O)[C@H](CC(C)C)NC2=O)C(C)C)NC(=O)[C@H](CC(=O)O)NC(=O)[C@H]([C@@H](C)CC)NC(=O)[C@H](CCC(=O)O)NC1=O` [SEQ ID NO:52, IQX1EIDX2LNEVAKX3LNEX4L] (Ac-IQ[S5]EID[S5]LNEVAK[S5]LNE[S5]L-NH2; staple 3-7, 14-18), for which the half-life at Proteinase K is greater than 1000 min. The compound also gave an IC50 in the series on SARS-CoV-2 of less than 6 µM.
The compound `CC[C@H](C)[C@H](NC(C)=O)C(=O)N[C@@H](CCC(N)=O)C(=O)N[C@@H](CCCCN)C(=O)N[C@@H](CCC(=O)O)C(=O)N[C@H](C(=O)N[C@@H](CC(=O)O)C(=O)N[C@@H](CCCNC(=N)N)C(=O)N[C@@H](CC(C)C)C(=O)N[C@@H](CC(N)=O)C(=O)N[C@@H](CCC(=O)O)C(=O)N[C@H](C(=O)N[C@@H](C)C(=O)N[C@@H](CCCCN)C(=O)N[C@@H](CC(N)=O)C(=O)N[C@@H](CC(C)C)C(=O)N[C@@H](CC(N)=O)C(=O)N[C@@H](CCC(=O)O)C(=O)N[C@@H](CO)C(=O)N[C@@H](CC(C)C)C(N)=O)C(C)C)[C@@H](C)CC` [SEQ ID NO:10, reference compound] registered a half-life at Proteinase K of 35 min.
As for `CCCC[C@@H]1NC(=O)[C@H](CCC(=O)O)NC(=O)[C@H](Cc2ccc(O)cc2)NC(=O)[C@@](C)(NC(=O)[C@H](CC(C)C)NC(=O)[C@H](CC(=O)O)NC(=O)[C@H](CC(C)C)NC(=O)[C@H](Cc2ccccc2)NC(=O)[C@@H](NC(=O)[C@@H](NC(=O)[C@H](CC(N)=O)NC(=O)[C@@H](NC(=O)[C@H](CCC(N)=O)NC(=O)[C@H](CC(=O)O)NC(=O)[C@H](CC(C)C)NC(=O)[C@H](CO)NC(C)=O)[C@@H](C)CC)C(C)C)[C@@H](C)O)CCCC=CCCC[C@@](C)(C(=O)N[C@@H](CCCCN)C(=O)N[C@@H](CC(C)C)C(=O)N[C@@H](CCC(=O)O)C(=O)N[C@@H](CCC(=O)O)C(=O)N[C@@H](C)C(=O)N[C@H](C(=O)N[C@@]2(C)CCCC=CCCC[C@@](C)(C(=O)N[C@@H](CO)C(=O)N[C@@H](Cc3ccc(O)cc3)C(=O)N[C@H](C(=O)N[C@@H](CC(=O)O)C(=O)N[C@@H](CC(C)C)C(=O)N[C@@H](CCCCN)C(=O)N[C@@H](CCC(=O)O)C(N)=O)[C@@H](C)CC)NC(=O)[C@H](CCC(=O)O)NC(=O)[C@H](CC(C)C)NC(=O)[C@H](CCCCN)NC2=O)[C@@H](C)CC)NC1=O` [SEQ ID NO:177, SLDQINVTFLDLX1YEBX2KLEEAIX3KLEX4SYIDLKE] (Ac-SLDQINVTFLDL[S5]YE[Nle][S5]KLEEAI[S5]KLE[S5]SYIDLKE-NH2; staple 13-17, 24-28), at Proteinase K, the half-life came to 840 min.
`CC[C@H](C)[C@H](NC(=O)[C@H](Cc1ccc(O)cc1)NC(=O)[C@H](CCC(N)=O)NC(=O)[C@H](CCC(=O)O)NC(=O)[C@H](Cc1ccc(O)cc1)NC(=O)[C@H](CCCCN)NC(=O)CNC(=O)[C@H](CC(C)C)NC(=O)[C@H](CCC(=O)O)NC(=O)[C@H](CCC(N)=O)NC(=O)[C@H](CC(C)C)NC(=O)[C@H](CC(=O)O)NC(=O)[C@@H](NC(=O)[C@H](CC(C)C)NC(=O)[C@H](CO)NC(=O)[C@]1(C)CCCC=CCCC[C@](C)(NC(=O)[C@H](C)NC(=O)[C@@H](NC(=O)[C@H](CCC(=O)O)NC(=O)[C@H](CC(N)=O)NC(=O)[C@H](CC(C)C)NC(=O)[C@]2(C)CCCC=CCCC[C@](C)(NC(=O)[C@H](CCC(N)=O)NC(=O)[C@@H](NC(=O)[C@H](CC(N)=O)NC(=O)[C@@H](NC(=O)[C@@H](NC(=O)[C@H](CO)NC(=O)[C@H](C)NC(=O)[C@H](CC(N)=O)NC(=O)[C@@H](NC(=O)CNC(=O)[C@H](CO)NC(=O)[C@@H](NC(C)=O)[C@@H](C)CC)[C@@H](C)CC)C(C)C)C(C)C)[C@@H](C)CC)C(=O)N[C@@H](CCC(=O)O)C(=O)N[C@@H]([C@@H](C)CC)C(=O)N[C@@H](CC(=O)O)C(=O)N2)C(C)C)C(=O)N[C@@H](CC(N)=O)C(=O)N[C@@H](CC(C)C)C(=O)N[C@@H](CC(N)=O)C(=O)N1)[C@@H](C)CC)C(N)=O` [SEQ ID NO:158] returned a half-life on Proteinase K of 33 min.

The values above are taken from US20240124529A1, “ANTIVIRAL […]-[…]-CoV-2 PEPTIDES AND USES THEREOF” (Dana-Farber Cancer Institute, Inc., priority 2020, published 2024).
